# Experiments:
# Assay type in all cases: functional
# Staphylococcus aureus [1] = assay: Antibacterial activity against methicillin-susceptible Staphylococcus aureus by CLSI M7-A7 broth microdilution method
# Staphylococcus aureus [2] = assay: Antibacterial activity against methicillin-resistant Staphylococcus aureus by CLSI M7-A7 broth microdilution method
# Staphylococcus aureus [3] = assay: Antibacterial activity against coagulase-negative and oxacillin-susceptible Staphylococcus aureus by CLSI M7-A7 broth microdilution method
# Staphylococcus aureus [4] = assay: Antibacterial activity against coagulase-negative and oxacillin-resistant Staphylococcus aureus by CLSI M7-A7 broth microdilution method
# Streptococcus pneumoniae [5] = assay: Antibacterial activity against penicillin-susceptible Streptococcus pneumoniae by CLSI M7-A7 broth microdilution method
# Streptococcus pneumoniae [6] = assay: Antibacterial activity against penicillin-resistant Streptococcus pneumoniae by CLSI M7-A7 broth microdilution method
# Streptococcus pyogenes [7] = assay: Antibacterial activity against erythromycin-susceptible Streptococcus pyogenes by CLSI M7-A7 broth microdilution method
# Streptococcus pyogenes [8] = assay: Antibacterial activity against erythromycin-nonsusceptible Streptococcus pyogenes by CLSI M7-A7 broth microdilution method
# Streptococcus agalactiae [9] = assay: Antibacterial activity against erythromycin-susceptible Streptococcus agalactiae by CLSI M7-A7 broth microdilution method
# Streptococcus agalactiae [10] = assay: Antibacterial activity against erythromycin-nonsusceptible Streptococcus agalactiae by CLSI M7-A7 broth microdilution method
# Streptococcus viridans [11] = assay: Antibacterial activity against penicillin-susceptible Streptococcus viridans by CLSI M7-A7 broth microdilution method
# Streptococcus viridans [12] = assay: Antibacterial activity against penicillin-nonsusceptible Streptococcus viridans by CLSI M7-A7 broth microdilution method
# Enterococcus faecalis [13] = assay: Antibacterial activity against vancomycin-susceptible Enterococcus faecalis by CLSI M7-A7 broth microdilution method
# Enterococcus faecalis [14] = assay: Antibacterial activity against vancomycin-resistant Enterococcus faecalis by CLSI M7-A7 broth microdilution method
# Enterococcus faecium = assay: Antibacterial activity against vancomycin-resistant Enterococcus faecium by CLSI M7-A7 broth microdilution method
# Enterobacteriaceae [15] = assay: Antibacterial activity against ceftazidime-susceptible Enterobacteriaceae by CLSI M7-A7 broth microdilution method
# Enterobacteriaceae [16] = assay: Antibacterial activity against ceftazidime-nonsusceptible Enterobacteriaceae by CLSI M7-A7 broth microdilution method
# Citrobacter freundii [17] = assay: Antibacterial activity against ceftazidime-susceptible Citrobacter freundii by CLSI M7-A7 broth microdilution method
# Citrobacter freundii [18] = assay: Antibacterial activity against ceftazidime-nonsusceptible Citrobacter freundii by CLSI M7-A7 broth microdilution method
# Enterobacter cloacae [19] = assay: Antibacterial activity against ceftazidime-susceptible Enterobacter cloacae by CLSI M7-A7 broth microdilution method
# Enterobacter cloacae [20] = assay: Antibacterial activity against ceftazidime-nonsusceptible Enterobacter cloacae by CLSI M7-A7 broth microdilution method
# Escherichia coli [21] = assay: Antibacterial activity against ceftazidime-susceptible Escherichia coli by CLSI M7-A7 broth microdilution method
# Escherichia coli [22] = assay: Antibacterial activity against ceftazidime-nonsusceptible Escherichia coli by CLSI M7-A7 broth microdilution method
# Klebsiella pneumoniae [23] = assay: Antibacterial activity against ceftazidime-susceptible Klebsiella pneumoniae by CLSI M7-A7 broth microdilution method
# Klebsiella pneumoniae [24] = assay: Antibacterial activity against ceftazidime-nonsusceptible Klebsiella pneumoniae by CLSI M7-A7 broth microdilution method
# Morganella morganii = assay: Antibacterial activity against ceftazidime-susceptible Morganella morganii by CLSI M7-A7 broth microdilution method
# Proteus mirabilis = assay: Antibacterial activity against ceftazidime-susceptible Proteus mirabilis by CLSI M7-A7 broth microdilution method
# Serratia marcescens = assay: Antibacterial activity against ceftazidime-susceptible Serratia marcescens by CLSI M7-A7 broth microdilution method
# Acinetobacter [25] = assay: Antibacterial activity against multidrug-resistant Acinetobacter by CLSI M7-A7 broth microdilution method
# Acinetobacter [26] = assay: Antibacterial activity against imipenem-susceptible Acinetobacter by CLSI M7-A7 broth microdilution method
# Haemophilus influenzae [27] = assay: Antibacterial activity against beta lactamase-negative Haemophilus influenzae by CLSI M7-A7 broth microdilution method
# Haemophilus influenzae [28] = assay: Antibacterial activity against beta lactamase-positive Haemophilus influenzae by CLSI M7-A7 broth microdilution method
# Moraxella catarrhalis = assay: Antibacterial activity against beta lactamase-positive Moraxella catarrhalis by CLSI M7-A7 broth microdilution method
# Pasteurella multocida = assay: Antibacterial activity against Pasteurella multocida by CLSI M7-A7 broth microdilution method
# Providencia sp. = assay: Antibacterial activity against ceftazidime-susceptible Providencia sp. by CLSI M7-A7 broth microdilution method
compound,measurement,setting,value
CCO/N=C(\C(=O)N[C@@H]1C(=O)N2C(C(=O)[O-])=C(Sc3nc(-c4cc[n+](C)cc4)cs3)CS[C@H]12)c1nsc(NP(=O)(O)O)n1 [CEFTAROLINE FOSAMIL],MIC50,Staphylococcus aureus [1],0.25 µg/mL
same,MIC90,Staphylococcus aureus [1],0.25 µg/mL
same,MIC50,Staphylococcus aureus [2],0.5 µg/mL
same,MIC90,Staphylococcus aureus [2],1 µg/mL
same,MIC50,Staphylococcus aureus [3],0.06 µg/mL
same,MIC90,Staphylococcus aureus [3],0.12 µg/mL
same,MIC50,Staphylococcus aureus [4],0.5 µg/mL
same,MIC90,Staphylococcus aureus [4],0.5 µg/mL
same,MIC,Streptococcus pneumoniae [5],≤ 0.008 µg/mL
same,MIC50,Streptococcus pneumoniae [5],≤ 0.008 µg/mL
same,MIC90,Streptococcus pneumoniae [5],0.015 µg/mL
same,MIC50,Streptococcus pneumoniae [6],0.12 µg/mL
same,MIC90,Streptococcus pneumoniae [6],0.12 µg/mL
same,MIC,Streptococcus pyogenes [7],≤ 0.008 µg/mL
same,MIC50,Streptococcus pyogenes [7],≤ 0.008 µg/mL
same,MIC90,Streptococcus pyogenes [7],≤ 0.008 µg/mL
same,MIC,Streptococcus pyogenes [8],≤ 0.008 µg/mL
same,MIC50,Streptococcus pyogenes [8],≤ 0.008 µg/mL
same,MIC90,Streptococcus pyogenes [8],0.015 µg/mL
same,MIC50,Streptococcus agalactiae [9],0.015 µg/mL
same,MIC90,Streptococcus agalactiae [9],0.015 µg/mL
same,MIC50,Streptococcus agalactiae [10],0.015 µg/mL
same,MIC90,Streptococcus agalactiae [10],0.015 µg/mL
same,MIC,Streptococcus viridans [11],≤ 0.008 µg/mL
same,MIC50,Streptococcus viridans [11],≤ 0.008 µg/mL
same,MIC90,Streptococcus viridans [11],0.03 µg/mL
same,MIC50,Streptococcus viridans [12],0.12 µg/mL
same,MIC90,Streptococcus viridans [12],0.5 µg/mL
same,MIC50,Enterococcus faecalis [13],2 µg/mL
same,MIC90,Enterococcus faecalis [13],4 µg/mL
same,MIC50,Enterococcus faecalis [14],4 µg/mL
same,MIC90,Enterococcus faecalis [14],4 µg/mL
same,MIC50,Enterococcus faecium,> 16 µg/mL
same,MIC90,Enterococcus faecium,> 16 µg/mL
same,MIC50,Enterobacteriaceae [15],0.06 µg/mL
same,MIC90,Enterobacteriaceae [15],1 µg/mL
same,MIC50,Enterobacteriaceae [16],> 16 µg/mL
same,MIC90,Enterobacteriaceae [16],> 16 µg/mL
same,MIC50,Citrobacter freundii [17],0.12 µg/mL
same,MIC90,Citrobacter freundii [17],0.25 µg/mL
same,MIC50,Citrobacter freundii [18],> 16 µg/mL
same,MIC90,Citrobacter freundii [18],> 16 µg/mL
same,MIC50,Enterobacter cloacae [19],0.12 µg/mL
same,MIC90,Enterobacter cloacae [19],1 µg/mL
same,MIC50,Enterobacter cloacae [20],> 16 µg/mL
same,MIC90,Enterobacter cloacae [20],> 16 µg/mL
same,MIC50,Escherichia coli [21],0.06 µg/mL
same,MIC90,Escherichia coli [21],0.5 µg/mL
same,MIC50,Escherichia coli [22],> 16 µg/mL
same,MIC90,Escherichia coli [22],> 16 µg/mL
same,MIC50,Klebsiella pneumoniae [23],0.06 µg/mL
same,MIC90,Klebsiella pneumoniae [23],0.25 µg/mL
same,MIC50,Klebsiella pneumoniae [24],> 16 µg/mL
same,MIC90,Klebsiella pneumoniae [24],> 16 µg/mL
same,MIC50,Morganella morganii,0.06 µg/mL
same,MIC90,Morganella morganii,16 µg/mL
same,MIC50,Proteus mirabilis,0.06 µg/mL
same,MIC90,Proteus mirabilis,4 µg/mL
same,MIC50,Serratia marcescens,0.5 µg/mL
same,MIC90,Serratia marcescens,16 µg/mL
same,MIC50,Acinetobacter [25],> 16 µg/mL
same,MIC50,Acinetobacter [26],4 µg/mL
same,MIC90,Acinetobacter [26],> 16 µg/mL
same,MIC,Haemophilus influenzae [27],≤ 0.008 µg/mL
same,MIC50,Haemophilus influenzae [27],≤ 0.008 µg/mL
same,MIC90,Haemophilus influenzae [27],0.015 µg/mL
same,MIC50,Haemophilus influenzae [28],0.015 µg/mL
same,MIC90,Haemophilus influenzae [28],0.03 µg/mL
same,MIC50,Moraxella catarrhalis,0.06 µg/mL
same,MIC90,Moraxella catarrhalis,0.25 µg/mL
same,MIC,Pasteurella multocida,≤ 0.008 µg/mL
same,MIC50,Pasteurella multocida,≤ 0.008 µg/mL
same,MIC90,Pasteurella multocida,0.06 µg/mL
same,MIC50,Providencia sp.,1 µg/mL
same,MIC90,Providencia sp.,> 16 µg/mL
